Numbered stars: 1 amine (or outer) side, 2 acyl side, 3 side chain; on linkers, the order of the positions; unused ones are H or OH. Bridge positions count the residues as written; N and C are the ends. Side chains are listed from the residue outwards. Peptide text beside a SMILES is read from it. * marks the point of attachment. C20 diacid = O=C(O)CCCCCCCCCCCCCCCCCCC(=O)*; γGlu = O=C(O)[C@H](CCC(=O)[*:2])N[*:1]
Legend:
[1] = target: T1, human calcitonin receptor (Homo sapiens, UniProt P30988); assay: Assay (II)a functional assay, human calcitonin receptor (CRE luciferase, BHK cells);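 further: luminescence from a CRE-driven luciferase reporter, read by single photon counting after cells were exposed to test samples for 3 h at 37 °C under 5% CO2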; assay type: cell-based; details: read-out: hCTR funct. EC50
T1 construct: expressed in transfected cells
T1 sequence (P30988 25-474): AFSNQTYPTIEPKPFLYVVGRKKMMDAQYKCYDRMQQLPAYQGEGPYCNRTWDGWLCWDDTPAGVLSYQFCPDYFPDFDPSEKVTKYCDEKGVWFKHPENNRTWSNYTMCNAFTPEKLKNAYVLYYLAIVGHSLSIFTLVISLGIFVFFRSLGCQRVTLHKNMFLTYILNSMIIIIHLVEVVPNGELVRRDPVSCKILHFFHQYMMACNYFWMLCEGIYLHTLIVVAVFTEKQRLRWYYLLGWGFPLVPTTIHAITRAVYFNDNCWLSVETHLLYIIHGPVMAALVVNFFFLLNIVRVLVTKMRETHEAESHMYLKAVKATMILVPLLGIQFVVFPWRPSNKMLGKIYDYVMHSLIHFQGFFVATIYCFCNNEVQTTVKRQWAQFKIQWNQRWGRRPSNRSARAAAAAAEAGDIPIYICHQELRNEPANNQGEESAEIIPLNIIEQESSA

human amylin receptor = target: T2, human amylin receptor (Homo sapiens, UniProt O60896+P30988); assay: Assay (V) binding to the human amylin receptor (SPA, 125I-rat amylin); details: human amylin receptor membranes, SPA; read-out: hAmylin-R bind IC50
T2 construct: expressed in transfected cells
T2 sequence (P30988 25-474): T1 sequence (P30988 25-474)
T2 sequence (O60896 24-148 partner): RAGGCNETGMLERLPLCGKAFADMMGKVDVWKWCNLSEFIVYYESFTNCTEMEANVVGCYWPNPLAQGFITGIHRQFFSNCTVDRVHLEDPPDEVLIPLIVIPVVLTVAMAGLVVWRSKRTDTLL
Summary of the method: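 SPA competition binding on membranes from Amylin 3(a)/CRE-luc cells, 35 ng/μL membranes with 0.05 mg/well beads. Buffer 50 mM Hepes pH 7.4, 1 mM CaCl2, 5 mM MgCl2, 0.1% OA, 0.02% Tween20. IC50 from one-site competition fit as affinity measure.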

[2] = target: T3, human amylin receptor (amylin 3(a) receptor: human calcitonin receptor + RAMP-3) (Homo sapiens, UniProt O60896+P30988); assay: Assay (II)a functional assay, human amylin receptor (CRE luciferase, BHK cells); assay type: cell-based; details: for EC50: functional assay, human amylin receptor, read-out: hAmylin-R funct. EC50
T3 construct: expressed in transfected cells
T3 sequence (P30988 25-474): T1 sequence (P30988 25-474)
T3 sequence (O60896 24-148 partner): T2 sequence (O60896 24-148 partner)

[3] = target: T1, human calcitonin receptor; assay: Assay (VII) binding to the human calcitonin receptor (SPA, 125I-Calcitonin); details: read-out: hCTR bind IC50;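 further: cell membranes coupled to SPA beads, competitive displacement read by scintillation counting, IC50 derived from a one-site competition fit as a measure of receptor affinity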
Description: Membranes were prepared in the following way; the cells were rinsed with PBS and incubated with Versene for approximately 5 min before harvesting. The cells were flushed with PBS and the cell-suspension was centrifuged for 5 min at 1000 rpm. […] The resulting pellet was resuspended in buffer 2 and protein concentration was measured (BCA protein Assay, Pierce). The homogenate was kept cold during the whole procedure. The membranes were kept at −80° C. until use. Assay was performed in a 384 well Optiplate (PerkinElmer) in a total volume of 40 ul. Membranes were mixed with SPA beads. Final concentration of membranes 35 ng/μL final and Final concentration of SPA beads was 0.05 mg/well. Test-compounds were dissolved in DMSO and further diluted in assay buffer (50 mM Hepes, pH 7.4, 1 mM CaCl2, 5 mM MgCl2, 0.1% OA and 0.02% Tween20). […] Samples were analyzed on TopCounter™ (Packard). The IC50 was calculated using (one site binding competition analysis) GraphPad Prism5 as a measure of receptor affinity.

[4] = Table 6, human functional selectivity (hCTR EC50 / hAmylin-R EC50)
[5] = Table 6a, human functional selectivity (hCTR EC50 / hAmylin-R EC50), at least 5
[6] = Table 6j, hCTR funct. EC50 / hAmylin-R funct. EC50
[7] = Table 6k, hCTR funct. EC50 / hAmylin-R funct. EC50

Structure (SMILES)	EC50 [1] [nM]	IC50 (human amylin receptor) [nM]	Ratio hCT/hAmylin funct. [2, 4]	Ratio hCT/hAmylin funct. [2, 5]	Ratio hCT/hAmylin funct. [2, 6]	Ratio hCT/hAmylin funct. [2, 7]	EC50 [2] [nM]	IC50 [3] [nM]
CC[C@H](C)[C@H](NC(=O)[C@H](C)NC(=O)CNC(=O)[C@H](Cc1ccccc1)NC(=O)[C@H](CC(N)=O)NC(=O)[C@@H]1CCCN1C(=O)[C@H](CO)NC(=O)[C@H](CO)NC(=O)[C@H](Cc1c[nH]cn1)NC(=O)[C@H](CCCNC(=N)N)NC(=O)[C@H](CC(C)C)NC(=O)[C@H](Cc1ccccc1)NC(=O)[C@H](Cc1c[nH]cn1)NC(=O)[C@H](C)NC(=O)[C@H](CC(C)C)NC(=O)[C@H](CCCNC(=N)N)NC(=O)[C@H](CCC(N)=O)NC(=O)[C@@H](NC(=O)[C@H](C)NC(=O)[C@@H]1CSSC[C@H](NC(=O)[C@@H](N)CCCCNC(=O)CC[C@H](NC(=O)CC[C@H](NC(=O)CCCCCCCCCCCCCCCCCCC(=O)O)C(=O)O)C(=O)O)C(=O)N[C@@H](CC(N)=O)C(=O)N[C@@H]([C@@H](C)O)C(=O)N[C@@H](C)C(=O)N[C@@H]([C@@H](C)O)C(=O)N1)[C@@H](C)O)C(=O)N1CCC[C@H]1C(=O)N[C@@H](CO)C(=O)N[C@@H](CO)C(=O)N[C@H](C(=O)N[C@@H](CC(N)=O)C(=O)N[C@H](C(=O)NCC(=O)N[C@@H](CO)C(=O)N[C@@H](CC(N)=O)C(=O)N[C@H](C(=O)N[C@@H](Cc1ccc(O)cc1)C(N)=O)[C@@H](C)O)C(C)C)[C@@H](C)O [Example 92]	2.38	0.179	28.0	28.0	28.0	28.0	0.085	26
CC[C@H](C)[C@H](NC(=O)[C@H](C)NC(=O)CNC(=O)[C@H](Cc1ccccc1)NC(=O)[C@H](CC(N)=O)NC(=O)[C@@H]1CCCN1C(=O)[C@H](CO)NC(=O)[C@H](CO)NC(=O)[C@H](Cc1c[nH]cn1)NC(=O)[C@H](CCCNC(=N)N)NC(=O)[C@H](CC(C)C)NC(=O)[C@H](Cc1ccccc1)NC(=O)[C@H](C)NC(=O)[C@H](C)NC(=O)[C@H](CC(C)C)NC(=O)[C@H](CCCNC(=N)N)NC(=O)[C@H](CCC(N)=O)NC(=O)[C@@H](NC(=O)[C@H](C)NC(=O)[C@@H]1CSSC[C@H](NC(=O)[C@@H](N)CCCCNC(=O)CC[C@H](NC(=O)CCCCCCCCCCCCCCCCCCC(=O)O)C(=O)O)C(=O)N[C@@H](CC(N)=O)C(=O)N[C@@H]([C@@H](C)O)C(=O)N[C@@H](C)C(=O)N[C@@H]([C@@H](C)O)C(=O)N1)[C@@H](C)O)C(=O)N1CCC[C@H]1C(=O)N[C@@H](CO)C(=O)N[C@@H](CO)C(=O)N[C@H](C(=O)N[C@@H](CC(N)=O)C(=O)N[C@H](C(=O)NCC(=O)N[C@@H](Cc1c[nH]cn1)C(=O)N[C@@H](CC(N)=O)C(=O)N[C@H](C(=O)N[C@@H](Cc1ccc(O)cc1)C(N)=O)[C@@H](C)O)C(C)C)[C@@H](C)O [Example 93] (H-K([γGlu-C20 diacid])CNTATCATQRLAAFLRHSSPNFGAIPSSTNVGHNTY-NH2; disulfide 2-7)	1.15	0.176	9.7	9.7	9.7	9.7	0.118	17.8
CC[C@H](C)[C@H](NC(=O)[C@H](C)NC(=O)CNC(=O)[C@H](Cc1ccccc1)NC(=O)[C@H](CC(N)=O)NC(=O)[C@@H]1CCCN1C(=O)[C@H](CO)NC(=O)[C@H](CO)NC(=O)[C@H](Cc1c[nH]cn1)NC(=O)[C@H](CCCNC(=N)N)NC(=O)[C@H](CC(C)C)NC(=O)[C@H](Cc1ccccc1)NC(=O)[C@H](CC(N)=O)NC(=O)[C@H](C)NC(=O)[C@H](CC(C)C)NC(=O)[C@H](CCCNC(=N)N)NC(=O)[C@H](CCC(N)=O)NC(=O)[C@@H](NC(=O)[C@H](C)NC(=O)[C@@H]1CSSC[C@H](NC(=O)[C@@H](N)CCCCNC(=O)COCCOCCNC(=O)COCCOCCNC(=O)CC[C@H](NC(=O)CCCCCCCCCCCCCCCCCCC(=O)O)C(=O)O)C(=O)N[C@@H](CC(N)=O)C(=O)N[C@@H]([C@@H](C)O)C(=O)N[C@@H](C)C(=O)N[C@@H]([C@@H](C)O)C(=O)N1)[C@@H](C)O)C(=O)N1CCC[C@H]1C(=O)N[C@@H](CO)C(=O)N[C@@H](CO)C(=O)N[C@H](C(=O)N1CCC[C@H]1C(=O)N[C@H](C(=O)NCC(=O)N[C@@H](CO)C(=O)N[C@@H](CC(N)=O)C(=O)N[C@H](C(=O)N[C@@H](Cc1ccc(O)cc1)C(N)=O)[C@@H](C)O)C(C)C)[C@@H](C)O [Example 96]	3.8	0.166	21.0	21.0	21.0	21.0	0.181	13.2
